Patent publication US20040038855A1 (priority 1999, published 2004)
Like-named read-outs stand apart in the source and are kept apart here.

Assays:
[1] = target: T1, human Histamine H1 receptor (Homo sapiens, UniProt P35367); assay: Binding affinity at the human histamine H1 receptor
T1 construct: expressed in transfected cells
From the text: (§1) Other receptors: Cell membranes expressing human dopamine D1, D2, D4 and rat D3 receptors were purchased through BioSignal, Inc. (Montreal, Canada). Binding assays using the histamine H1 receptor; dopamine receptors; and α1A, α1B, and α2 adrenergic receptors may be carried out according to the procedures described in U.S. Pat. No. 5,780,485, the disclosure of which is hereby incorporated by reference in its entirety into this application. Binding assays using the dopamine D5 receptor may be carried out according to the procedures described in U.S. Pat. No. 5,882,855, the disclosure of which is hereby incorporated by reference in its entirety into this application. Binding assays for the human α1D adrenergic receptor may be carried out according to the procedures described in U.S. Pat. No. 6,156,518, the disclosure of which is hereby incorporated by reference in its entirety into this application.

[2] = target: T2, human Alpha-1a Adrenergic receptor (Homo sapiens, UniProt P35348); assay: Binding affinity at the human alpha-1A adrenergic receptor
T2 construct: expressed in transfected cells
T2 sequence (P35348 1-466): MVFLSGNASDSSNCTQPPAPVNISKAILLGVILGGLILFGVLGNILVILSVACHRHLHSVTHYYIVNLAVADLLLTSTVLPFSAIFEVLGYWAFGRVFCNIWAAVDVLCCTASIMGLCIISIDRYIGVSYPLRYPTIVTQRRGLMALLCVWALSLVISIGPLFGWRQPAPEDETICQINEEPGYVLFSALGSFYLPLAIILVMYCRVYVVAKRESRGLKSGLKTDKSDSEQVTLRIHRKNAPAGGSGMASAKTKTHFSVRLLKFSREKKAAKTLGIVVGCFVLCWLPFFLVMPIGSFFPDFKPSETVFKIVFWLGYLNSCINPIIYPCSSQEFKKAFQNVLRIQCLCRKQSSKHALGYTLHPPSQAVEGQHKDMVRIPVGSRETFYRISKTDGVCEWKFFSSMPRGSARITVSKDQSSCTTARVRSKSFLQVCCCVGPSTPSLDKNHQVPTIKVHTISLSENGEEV
From the text: as §1

[3] = target: T3, human Dopamine D2 receptor (Homo sapiens, UniProt P14416); assay: Binding affinity at the human dopamine D2 receptor; details: Table 3c; read-out: hD2 Ki
T3 construct: purchased BioSignal, Inc. (Montreal, Canada)
From the text: as §1

rat MCH1 receptor = target: T4, rat MCH1 receptor (Rattus norvegicus, UniProt P97639); assay: Binding affinity (Ki) at the rat MCH1 receptor
T4 construct: expressed in transfected cells
Protocol: For binding assays, pellets of transfected cells are suspended in ice-cold buffer (20 mM Tris.HCl, 5 mM EDTA, pH 7.4) and homogenized by sonication for 7 sec. The cell lysates are centrifuged at 200×g for 5 min at 4° C. The supernatants are then centrifuged at 40,000×g for 20 min at 4° C. The resulting pellets are washed once in the homogenization buffer and suspended in binding buffer (see methods for radioligand binding). Protein concentrations are determined by the method of Bradford (1976) using bovine serum albumin as the standard. Binding assays are usually performed immediately, however it is possible to prepare membranes in batch and store frozen in liquid nitrogen for future use.
Binding is performed at 25° C. for 1 hr. Incubations are terminated by rapid vacuum filtration over GF/C glass fiber filters, presoaked in 5% PEI using 50 mM Tris pH 7.4 containing 0.01% triton X-100 as wash buffer.
A methanolic solution of methyl (4S)-3-({[3-(4-[3-(acetylamino)phenyl]-3,6-dihydro-1(2H)pyridinyl)propyl]amino}carbonyl)-4-(3,4-difluorophenyl)-6-(methoxymethyl)-2-oxo-1,2,3,4-tetrahydro-5-pyrimidinecarboxylate was exposed to tritium gas at 1 atmosphere pressure in the presence of 5% palladium on carbon with stirring overnight to give the tritiated methyl (4S)-3-{[(3-{4-[3-(acetylamino)phenyl]-1-piperidinyl}propyl)amino]carbonyl}-4-(3,4-difluorophenyl)-6-(methoxymethyl)-2-oxo-1,2,3,4-tetrahydro-5-pyrimidinecarboxylate ((+)-isomer) After purification by reverse phase HPLC (Hypersil ODS, 4.6×100 mm, methanol:H2O:Et3N 10:90:1 to 100:0:1 in 15 min at 1.0 mL/min, with radiochemical and UV detection), this product was used as a radioligand in the MCH1 binding assays. The same procedure was carried out with H2 gas in place of ^3H2 to afford the non-radioactive version of Compound 10.

[4] = Table 3c, read-out: hAlpha-1a Ki
[5] = Examples 38-141, read-out: Ki (nM) rMCH1

T3 sequence (P14416 whole entry): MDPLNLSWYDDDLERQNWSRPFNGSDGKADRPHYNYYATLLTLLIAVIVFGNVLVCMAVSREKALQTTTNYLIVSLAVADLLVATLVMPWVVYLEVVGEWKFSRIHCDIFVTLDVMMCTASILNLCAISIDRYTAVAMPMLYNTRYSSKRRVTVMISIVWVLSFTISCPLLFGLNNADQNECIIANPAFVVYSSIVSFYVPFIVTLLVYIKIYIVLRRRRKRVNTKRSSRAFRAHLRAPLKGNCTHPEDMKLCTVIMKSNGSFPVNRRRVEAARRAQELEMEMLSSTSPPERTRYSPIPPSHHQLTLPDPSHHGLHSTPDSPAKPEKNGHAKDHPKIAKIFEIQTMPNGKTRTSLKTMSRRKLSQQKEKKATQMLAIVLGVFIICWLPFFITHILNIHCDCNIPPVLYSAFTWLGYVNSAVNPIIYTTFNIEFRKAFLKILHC
T1 sequence (P35367 whole entry): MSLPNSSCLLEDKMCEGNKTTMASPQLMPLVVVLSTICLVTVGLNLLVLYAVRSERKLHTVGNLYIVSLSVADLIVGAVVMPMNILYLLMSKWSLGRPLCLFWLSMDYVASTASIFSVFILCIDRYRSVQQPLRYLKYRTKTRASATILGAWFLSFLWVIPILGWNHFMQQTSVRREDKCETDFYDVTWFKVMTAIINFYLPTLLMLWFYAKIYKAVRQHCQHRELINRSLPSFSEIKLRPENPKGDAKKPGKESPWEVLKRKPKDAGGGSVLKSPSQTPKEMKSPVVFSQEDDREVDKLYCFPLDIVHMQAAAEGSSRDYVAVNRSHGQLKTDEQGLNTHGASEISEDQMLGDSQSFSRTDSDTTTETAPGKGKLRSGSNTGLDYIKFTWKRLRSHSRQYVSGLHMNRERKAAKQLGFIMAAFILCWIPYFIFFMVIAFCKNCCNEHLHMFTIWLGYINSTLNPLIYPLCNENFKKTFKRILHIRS
T4 sequence (P97639 whole entry): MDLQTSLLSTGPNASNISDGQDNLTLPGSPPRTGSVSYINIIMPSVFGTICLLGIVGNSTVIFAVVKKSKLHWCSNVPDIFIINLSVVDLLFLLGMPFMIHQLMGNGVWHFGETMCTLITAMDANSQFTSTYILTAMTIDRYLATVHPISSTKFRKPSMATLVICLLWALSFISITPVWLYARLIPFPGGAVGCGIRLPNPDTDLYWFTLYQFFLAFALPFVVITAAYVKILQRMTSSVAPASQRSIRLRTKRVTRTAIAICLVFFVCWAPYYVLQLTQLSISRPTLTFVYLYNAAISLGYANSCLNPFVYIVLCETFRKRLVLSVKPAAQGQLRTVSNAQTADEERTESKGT

SMILES | Ki ([1]; Table 3c, read-out: hH1 Ki) [nM] | Ki [2, 4] [nM] | Ki [3] [nM] | Ki (rat MCH1 receptor; [5]) [nM] | Ki (rat MCH1 receptor; Table 3c, read-out: rMCH1 Ki) [nM] | Ki [1] [nM] | Ki (rat MCH1 receptor) [nM] | Ki (rat MCH1 receptor; read-out: rMCH1 Ki, Table 3c) [nM] | Ki [2] [nM]
COC(CCN1CCC(c2cccc(NC(=O)C(C)C)c2)CC1)c1ccc(Cl)cc1 (stereo not drawn) [Example 91] | 2000 | 533 | 9650 | 11.5 | 11.5 | – | – | – | –
CC(C)C(=O)Nc1cccc(C2CCN(CCCCCCN3C(=O)c4ccccc4C3=O)CC2)c1 [Example 92] | 2450 | 1490 | 12000 | 62 | 62 | – | – | – | –
CC(C)C(=O)Nc1cccc(C2CCN(CCCCN3C(=O)c4ccccc4C3=O)CC2)c1 [Example 94] | 6590 | 1590 | > 50000 | 18.2 | 18.2 | – | – | – | –
CC(C)C(=O)Nc1cccc(C2CCN(CCCCCN3C(=O)c4ccccc4C3=O)CC2)c1 [Example 95, N-(3-{1-[5-(1,3-dioxo-1,3-dihydro-2H-isoindol-2-yl)pentyl]-4-piperidinyl]phenyl)-2-methylpropanamide] | 6400 | 2940 | > 50000 | 11.8 | 11.8 | – | – | – | –
CC(C)C(=O)Nc1cccc(C2CCN(CCCCc3ccccc3)CC2)c1 [Example 96] | 273 | 12.3 | 7450 | 50 | 50 | – | – | – | –
COC(CCN1CCC(c2cccc(NC(=O)C(C)C)c2)CC1)c1ccc(C)cc1 (stereo not drawn) [Example 99] | 2560 | 434 | 10400 | 12 | 12 | – | – | – | –
CC(C)C(=O)Nc1cccc(C2CCN(CCCC(c3ccc(F)cc3)c3ccc(F)cc3)CC2)c1 [Example 101] | 3.4 | 18 | 42.2 | 1.6 | 1.6 | – | – | – | –
CC(C)C(=O)Nc1cccc(C2CCN(Cc3cc(C(F)(F)F)cc(C(F)(F)F)c3)CC2)c1 [Example 103] | 36900 | > 50000 | > 50000 | 52 | 52 | – | – | – | –
CC(C)C(=O)Nc1cccc(C2CCN(CC[C@H](Oc3ccccc3)c3ccccc3)CC2)c1 [Example 105] | – | 140 | 471 | – | – | 39.1 | 7.1 | 7.1 | –
CC(C)C(=O)Nc1cccc(C2CCN(CC[C@@H](Oc3ccccc3)c3ccccc3)CC2)c1 [Example 112] | – | – | 435 | – | – | 32.5 | 22.3 | 22.3 | 55
CC(C)C(=O)Nc1cccc(C2CCN(CC[C@@H](O)c3ccccc3)CC2)c1 [Example 113] | 48700 | 3210 | 42000 | 16.6 | 16.6 | – | – | – | –
COCC1=C(C(=O)OC)C(c2ccc(F)c(F)c2)N(C(=O)NCCCN2CCC(c3cc(F)ccc3OC)CC2)C(=O)N1 (stereo not drawn) [Example 115] | 46.9 | 49.1 | 262 | 12.9 | 12.9 | – | – | – | –
CC(C)C(=O)Nc1cccc(C2CCN(CC[C@@H](Oc3cc(C(F)(F)F)ccc3F)c3ccccc3)CC2)c1 [Example 121] | 9390 | 1720 | 331 | 17 | 17 | – | – | – | –

The next lines start with results.

Ki ([1]; Table 3c, read-out: hH1 Ki) [nM] | Ki [2, 4] [nM] | Ki [3] [nM] | Ki (rat MCH1 receptor; [5]) [nM] | Ki (rat MCH1 receptor; Table 3c, read-out: rMCH1 Ki) [nM] | SMILES | Ki [1] [nM] | Ki (rat MCH1 receptor) [nM] | Ki (rat MCH1 receptor; read-out: rMCH1 Ki, Table 3c) [nM] | Ki [2] [nM]
16700 | 1090 | 35000 | 29.1 | 29.1 | COC(CCN1CCC(c2cccc(NC(=O)C(C)C)c2)CC1)c1ccccc1 (stereo not drawn) [Example 93] | – | – | – | –
11100 | 704 | 8670 | 11.5 | 11.5 | CC(C)OC(CCN1CCC(c2cccc(NC(=O)C(C)C)c2)CC1)c1ccccc1 (stereo not drawn) [Example 100] | – | – | – | –
6390 | 452 | 735 | 6.7 | 6.7 | COc1ccc(O[C@H](CCN2CCC(c3cccc(NC(=O)C(C)C)c3)CC2)c2ccccc2)cc1OC [Example 104] | – | – | – | –
304 | 161 | 1080 | 3.9 | 3.9 | COc1ccc(O[C@@H](CCN2CCC(c3cccc(NC(=O)C(C)C)c3)CC2)c2ccccc2)cc1 [Example 106] | – | – | – | –
130 | 33.5 | 152 | 3.1 | 3.1 | CC(C)C(=O)Nc1cccc(C2CCN(CC[C@H](Oc3cccc(Cl)c3)c3ccccc3)CC2)c1 [Example 107] | – | – | – | –
264 | 13.2 | 244 | 3.8 | 3.8 | CC(C)C(=O)Nc1cccc(C2CCN(CC[C@H](Oc3ccc(Cl)cc3)c3ccccc3)CC2)c1 [Example 108] | – | – | – | –
1320 | 221 | 191 | 7.1 | 7.1 | CC(C)C(=O)Nc1cccc(C2CCN(CC[C@H](Oc3ccc(C(F)(F)F)cc3)c3ccccc3)CC2)c1 [Example 109] | – | – | – | –
283 | 187 | 83 | 4.9 | 4.9 | CC(C)C(=O)Nc1cccc(C2CCN(CC[C@@H](Oc3cc(F)ccc3F)c3ccccc3)CC2)c1 [Example 110] | – | – | – | –
1100 | 125 | 162 | 5 | 5 | CC(C)C(=O)Nc1cccc(C2CCN(CC[C@@H](Oc3ccc(Cl)c(Cl)c3)c3ccccc3)CC2)c1 [Example 111] | – | – | – | –
590 | 233 | 390 | 2.01 | 20.1 | CC(C)C(=O)Nc1cccc(C2CCN(CC[C@H](Oc3ccc(C#N)cc3)c3ccccc3)CC2)c1 [Example 114, N-(3-{1-[(3S)-3-(4-cyanophenoxy)-3-phenylpropyl]-4-piperidinyl}phenyl)-2-methylpropanamide] | – | – | – | –
546 | 22.3 | 52 | 0.923 | 0.923 | CC(C)C(=O)Nc1cccc(C2CCN(CC[C@H](Oc3ccc(Br)cc3)c3ccccc3)CC2)c1 [Example 116] | – | – | – | –
969 | 310 | 281 | 13.6 | 13.6 | COc1cccc(O[C@@H](CCN2CCC(c3cccc(NC(=O)C(C)C)c3)CC2)c2ccccc2)c1 [Example 117] | – | – | – | –
25300 | 719 | 319 | 12.8 | 12.8 | COc1cc(C#N)ccc1O[C@@H](CCN1CCC(c2cccc(NC(=O)C(C)C)c2)CC1)c1ccccc1 [Example 118] | – | – | – | –
25300 | 1060 | 766 | 22.4 | 22.4 | COc1ccc(C(C)=O)cc1O[C@@H](CCN1CCC(c2cccc(NC(=O)C(C)C)c2)CC1)c1ccccc1 [Example 119] | – | – | – | –
6990 | 1140 | 313 | 14.8 | 14.8 | CC(=O)c1ccccc1O[C@H](CCN1CCC(c2cccc(NC(=O)C(C)C)c2)CC1)c1ccccc1 [Example 120] | – | – | – | –
3470 | 944 | 132 | 3.3 | 3.3 | CC(C)C(=O)Nc1cccc(C2CCN(CC[C@H](Oc3cc(C(F)(F)F)ccc3F)c3ccccc3)CC2)c1 [Example 122] | – | – | – | –
2150 | 511 | 133 | 5.9 | 5.9 | CC(C)C(=O)Nc1cccc(C2CCN(CC[C@H](Oc3cc(F)ccc3F)c3ccccc3)CC2)c1 [Example 123] | – | – | – | –
